The results in this text go back to patent publication US9845322B2 (Hoffmann-La Roche Inc., priority 2016, dated 2017).

In this experiment the test system is HBsAg secretion in HepG2.2.15 cells. The experiment is described as follows: HBsAg assay (chemiluminescence immunoassay of secreted HBsAg in culture supernatant). Format: cell-based, HBV. The gist of the method: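 HepG2.2.15 cells (1.5×10^4/well, duplicate) treated with three-fold compound dilutions, 1% DMSO final, DMSO as no-drug control. Secreted HBsAg in supernatant quantified semi-quantitatively by chemiluminescence immunoassay; IC50 is concentration reducing HBsAg 50% versus no-drug control.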

Setting [1] is: HepG2.2.15 cells, concentration at which HBsAg secretion was reduced by 50% compared to the no drug control, read-out: IC50 (HBsAg assay).
Where [2] appears, read: Hepatitis B virus, HepG2.2.15, HepG2.2.15 cells, concentration at which HBsAg secretion was reduced by 50% compared to the no drug control, read-out: IC50 (HBsAg assay).

Broadly, the IC50 is the concentration at which inhibition is half-maximal.

Where two headings read alike, the source gives them in different places.

As to `CCCC1c2cnc(-c3ccccn3)nc2CCN1c1cc(F)c(F)c(OC)c1` (single isomer, unassigned; (+)) [Example 13, (+)-6-(3,4-difluoro-5-methoxy-phenyl)-5-propyl-2-(2-pyridyl)-7,8-dihydro-5H-pyrido[4,3-d]pyrimidine], the IC50 under setting [1] worked out at 14400 nM.
Still for that read-out and setting: with `COc1cc(F)cc(N2CCc3nc(-c4ncccn4)ncc3C2C)c1` (stereo not shown) [Example 72, 6-(3-fluoro-5-methoxy-phenyl)-5-methyl-2-pyrimidin-2-yl-7,8-dihydro-5H-pyrido[4,3-d]pyrimidine] the figure was 22 nM.
For `COc1cc(N2CCc3nc(-c4ccccn4)ncc3C2C)cc(F)c1F` (single isomer, unassigned; (-)) [Example 7, (−)-6-(3,4-difluoro-5-methoxy-phenyl)-5-methyl-2-(2-pyridyl)-7,8-dihydro-5H-pyrido[4,3-d]pyrimidine], the IC50 under setting [1] was 12 nM.
Regarding `CC1c2cnc(-c3ncccn3)nc2CCN1c1cc(F)c(F)c(OCC(N)=O)c1` (stereo not shown) [Example 66, 2-[2,3-difluoro-5-(5-methyl-2-pyrimidin-2-yl-7,8-dihydro-5H-pyrido[4,3-d]pyrimidin-6-yl)phenoxy]acetamide], the IC50 under setting [1] was 168 nM.
On to `COc1c(Cl)c(F)cc(N2CCc3nc(-c4ncccn4)ncc3C2C)c1Cl` (single isomer, unassigned; (+)) [Example 124, (+)-6-(2,4-dichloro-5-fluoro-3-methoxy-phenyl)-5-methyl-2-pyrimidin-2-yl-7,8-dihydro-5H-pyrido[4,3-d]pyrimidine], for which the IC50 under setting [2] was found to be 1250 nM.
For the compound `CC1c2cnc(-c3ccccn3)nc2CCN1c1cc(N2CCCCC2)cc(F)n1` (stereo not shown) [Example 218, 6-(6-fluoro-4-(piperidin-1-yl)pyridin-2-yl)-5-methyl-2-(pyridin-2-yl)-5,6,7,8-tetrahydropyrido[4,3-d]pyrimidine], under setting [2], the IC50 was 22 nM.
Same read-out and setting: with `CC1c2cnc(-c3ncccn3)nc2CCN1c1cc(F)c(F)c(OCCCN2CCNC(=O)C2)c1` (stereo not shown) [Example 107, 4-[3-[2,3-difluoro-5-(5-methyl-2-pyrimidin-2-yl-7,8-dihydro-5H-pyrido[4,3-d]pyrimidin-6-yl)phenoxy]propyl]piperazin-2-one] the figure was 171 nM; with `CC(=O)N1CC(COc2cc(F)nc(N3CCc4nc(-c5ncccn5)ncc4C3C)c2)C1` (stereo not shown) [Example 160, 1-[3-[[2-fluoro-6-(5-methyl-2-pyrimidin-2-yl-7,8-dihydro-5H-pyrido[4,3-d]pyrimidin-6-yl)-4-pyridyl]oxymethyl]azetidin-1-yl]ethanone], 196 nM.
As to `CC1c2cnc(-c3ncccn3)nc2CCN1c1cc(OCC2CN(S(C)(=O)=O)C2)cc(F)n1` (stereo not shown) [Example 159, 6-[6-fluoro-4-[(1-methylsulfonylazetidin-3-yl)methoxy]-2-pyridyl]-5-methyl-2-pyrimidin-2-yl-7,8-dihydro-5H-pyrido[4,3-d]pyrimidine], the IC50 under setting [2] was determined as 56 nM.
Turning to `CC1c2cnc(-c3ncccn3)nc2CCN1c1cc(F)c(F)c(OCCC2CN(S(C)(=O)=O)C2)c1` (stereo not shown) [Example 118, 6-[3,4-difluoro-5-[2-(1-methylsulfonylazetidin-3-yl)ethoxy]phenyl]-5-methyl-2-pyrimidin-2-yl-7,8-dihydro-5H-pyrido[4,3-d]pyrimidine], under setting [2], the IC50 was found to be 13 nM.
`COC(=O)CCCCCCCOc1cc(F)nc(N2CCc3nc(-c4ncccn4)ncc3C2C)c1` (stereo not shown) [Example 167, methyl 8-[[2-fluoro-6-(5-methyl-2-pyrimidin-2-yl-7,8-dihydro-5H-pyrido[4,3-d]pyrimidin-6-yl)-4-pyridyl]oxy]octanoate]: the 50% inhibitory concentration (IC50) under setting [2] amounted to 26 nM.
As to `COc1cc(F)nc(N2CCc3nc(-c4ncccn4)ncc3C2C)c1Cl` (single isomer, unassigned; (-)) [Example 147, (−)-6-(3-chloro-6-fluoro-4-methoxy-2-pyridyl)-5-methyl-2-pyrimidin-2-yl-7,8-dihydro-5H-pyrido[4,3-d]pyrimidine], under setting [2], the IC50 was 21 nM.
`COc1cc(N2CCc3nc(-c4ncccn4)ncc3C2C)cc(F)c1C#N` (stereo not shown) [Example 22, 2-fluoro-6-methoxy-4-(5-methyl-2-pyrimidin-2-yl-7,8-dihydro-5H-pyrido[4,3-d]pyrimidin-6-yl)benzonitrile]: the half-maximal inhibitory concentration (IC50) (Hepatitis B virus, HepG2.2.15, read-out: IC50 (HBsAg assay)) turned out to be 27 nM.
As to `CC1c2cnc(-c3ncccn3)nc2CCN1c1cc(F)c(F)c(OCC(=O)NC2CCOC2)c1` (stereo not shown) [Example 83, 2-[2,3-difluoro-5-(5-methyl-2-pyrimidin-2-yl-7,8-dihydro-5H-pyrido[4,3-d]pyrimidin-6-yl)phenoxy]-N-tetrahydrofuran-3-yl-acetamide], the IC50 under setting [2] was 190 nM.
In the case of `CC1c2cnc(-c3ccccn3)nc2CCN1c1cc(OCCCCCCC(N)=O)cc(F)n1` (stereo not shown) [Example 180, 7-[[2-fluoro-6-[5-methyl-2-(2-pyridyl)-7,8-dihydro-5H-pyrido[4,3-d]pyrimidin-6-yl]-4-pyridyl]oxy]heptanamide], the IC50 under setting [2] was found to be 27 nM.
`CC1c2cnc(-c3ccccn3)nc2CCN1c1cc(F)c(F)c(OCC(=O)N2CCCC2)c1` (stereo not shown) [Example 31, 2-[2,3-difluoro-5-[5-methyl-2-(2-pyridyl)-7,8-dihydro-5H-pyrido[4,3-d]pyrimidin-6-yl]phenoxy]-1-pyrrolidin-1-yl-ethanone]: the IC50 under setting [2] stood at 156 nM.
On the same count and under the same terms, then `COc1cc(N2CCc3nc(-c4ccccn4)ncc3C2C[N+](=O)[O-])cc(F)c1F` (stereo not shown) [Example 39, 6-(3,4-difluoro-5-methoxy-phenyl)-5-(nitromethyl)-2-(2-pyridyl)-7,8-dihydro-5H-pyrido[4,3-d]pyrimidine], with 1340 nM; and `CC1c2cnc(-c3ncccn3)nc2CCN1c1cc(F)c(F)c(OCCC[S+](C)[O-])c1` (stereo not shown) [Example 106, 6-[3,4-difluoro-5-(3-methylsulfinylpropoxy)phenyl]-5-methyl-2-pyrimidin-2-yl-7,8-dihydro-5H-pyrido[4,3-d]pyrimidine], with 208 nM; and `CC1c2cnc(-c3ncccn3)nc2CCN1c1cc(F)c(F)c(OCCCCCCCCNC(=O)OC(C)(C)C)c1` (stereo not shown) [Example 54, tert-butyl N-[8-[2,3-difluoro-5-(5-methyl-2-pyrimidin-2-yl-7,8-dihydro-5H-pyrido[4,3-d]pyrimidin-6-yl)phenoxy]octyl]carbamate], with 146 nM.
Consider `CC1c2cnc(-c3ncccn3)nc2CCN1c1cc(F)cc(N(C)C)n1` (single isomer, unassigned; (-)) [Example 205, (−)-4-fluoro-N,N-dimethyl-6-[5-methyl-2-pyrimidin-2-yl-7,8-dihydro-5H-pyrido[4,3-d]pyrimidin-6-yl]pyridin-2-amine], for which the IC50 under setting [1] is 5 nM.
Consider `COCCCN(C)S(=O)(=O)c1cc(F)cc(N2CCc3nc(-c4ncccn4)ncc3C2C)c1` (stereo not shown) [Example 183, 3-fluoro-N-(3-methoxypropyl)-N-methyl-5-(5-methyl-2-pyrimidin-2-yl-7,8-dihydro-5H-pyrido[4,3-d]pyrimidin-6-yl)benzenesulfonamide], for which the 50% inhibitory concentration (IC50) under setting [2] was determined as 838 nM.
As for `COC(=O)COc1cc(N2CCc3nc(-c4ccccn4)ncc3C2C)cc(F)c1F` (stereo not shown) [Example 27, methyl 2-[2,3-difluoro-5-[5-methyl-2-(2-pyridyl)-7,8-dihydro-5H-pyrido[4,3-d]pyrimidin-6-yl]phenoxy]acetate], the IC50 under setting [2] was found to be 3430 nM.
For `COCCOc1cc(N2CCc3nc(-c4ccccn4)ncc3C2C)cc(F)c1F` (stereo not shown) [Example 19, 6-[3,4-difluoro-5-(2-methoxyethoxy)phenyl]-5-methyl-2-(2-pyridyl)-7,8-dihydro-5H-pyrido[4,3-d]pyrimidine], the half-maximal inhibitory concentration (IC50) under setting [1] was determined as 42 nM.
As for `CC1c2cnc(-c3ncccn3)nc2CCN1c1cc(F)c(F)c(OCCCNS(=O)(=O)C2CC2)c1` (stereo not shown) [Example 93, N-[3-[2,3-difluoro-5-(5-methyl-2-pyrimidin-2-yl-7,8-dihydro-5H-pyrido[4,3-d]pyrimidin-6-yl)phenoxy]propyl]cyclopropanesulfonamide], under setting [2], the half-maximal inhibitory concentration (IC50) was determined as 61 nM.
For `CC(=O)N1CC(CCOc2cc(N3CCc4nc(-c5ncccn5)ncc4C3C)cc(F)c2F)C1` (stereo not shown) [Example 117, 1-[3-[2-[2,3-difluoro-5-(5-methyl-2-pyrimidin-2-yl-7,8-dihydro-5H-pyrido[4,3-d]pyrimidin-6-yl)phenoxy]ethyl]azetidin-1-yl]ethanone], the 50% inhibitory concentration (IC50) under setting [2] was found to be 72 nM.
On the same count and under the same terms, then `CC1c2cnc(-c3ccccn3)nc2CCN1c1cc(F)c(F)c(OCCCN2CCOCC2)c1` (stereo not shown) [Example 32, 4-[3-[2,3-difluoro-5-[5-methyl-2-(2-pyridyl)-7,8-dihydro-5H-pyrido[4,3-d]pyrimidin-6-yl]phenoxy]propyl]morpholine], with 74 nM; and `CC1c2cnc(-c3ccccn3)nc2CCN1c1cc(F)cc(N2CCOCC2)n1` (stereo not shown) [Example 221, 4-[4-fluoro-6-[5-methyl-2-(2-pyridyl)-7,8-dihydro-5H-pyrido[4,3-d]pyrimidin-6-yl]-2-pyridyl]morpholine], with 34 nM.
In the case of `COc1cc(N2CCc3nc(-c4ncccn4)ncc3C2C)cc(Cl)c1F` (stereo not shown) [Example 41, 6-(3-chloro-4-fluoro-5-methoxy-phenyl)-5-methyl-2-pyrimidin-2-yl-7,8-dihydro-5H-pyrido[4,3-d]pyrimidine], the IC50 under setting [1] came out at 38 nM.
As for `CCC1c2cnc(-c3ccccn3)nc2CCN1c1cc(F)c(F)c(OC)c1` (stereo not shown) [Example 9, 6-(3,4-difluoro-5-methoxy-phenyl)-5-ethyl-2-(2-pyridyl)-7,8-dihydro-5H-pyrido[4,3-d]pyrimidine], the IC50 under setting [1] came to 183 nM.
With `CC1c2cnc(-c3ccccn3)nc2CCN1c1cc(F)cc(OCC(F)F)n1` (stereo not shown) [Example 193, 6-[6-(2,2-difluoroethoxy)-4-fluoro-2-pyridyl]-5-methyl-2-(2-pyridyl)-7,8-dihydro-5H-pyrido[4,3-d]pyrimidine], the half-maximal inhibitory concentration (IC50) under setting [2] stood at 83 nM.
Turning to `COc1cc(N2CCc3nc(-c4ncccn4)ncc3C2C)cc(F)c1F` (stereo not shown) [Example 15, 6-(3,4-difluoro-5-methoxy-phenyl)-5-methyl-2-pyrimidin-2-yl-7,8-dihydro-5H-pyrido[4,3-d]pyrimidine], the IC50 under setting [1] was determined as 15 nM.
